In paper PMC7565988, “Insight into the Anticancer Activity of Copper(II) 5-Methylenetrimethylammonium-Thiosemicarbazonates and Their Interaction with Organic Cation Transporters” (Biomolecules, 2020):
Like-named read-outs stand apart in the source and are kept apart here.

Key:
[1] = Solution stability of copper(II) complexes, UV/Vis spectrophotometric titration; format: physicochemical; settings: for logβ [Cu(HL)]2+ / logβ [CuL]+: copper(II) complex of the proligand; for logβ [Cu(HL)]2+ / logβ [CuL]+ / logβ [CuLH−1]: I = 0.1 M (KCl), t = 25 °C; for logKderived [CuLH−1]+: logβ [CuL]+ − pKa (H2L+); for logβ [CuLH−1]: mixed hydroxido [CuL(OH)] species; for pCu (−log[Cu(II)]): pH = 7.4, cCu(II) = 10 μM, cL = 10 μM
Experimental: An Agilent Carry 8454 diode array spectrophotometer was used to record the UV/Vis spectra in the interval 200–800 nm. The path length was 1 cm. Proton dissociation constants (pKa) of the TSC ligands, the overall stability constants of the copper(II) monoligand complexes (logβ) and the individual spectra of the species in the various protonation states and stoichiometry were calculated by the computer program PSEQUAD [44]. Spectrophotometric titrations were performed on samples containing the proligands at 50 μM concentration by a KOH solution in the presence of 0.1 M KCl at 25.0 ± 0.1 °C in the pH range from 2 to 11.5, and the metal-to-ligand ratio was 1:0, 1:1 and 1:2. An Orion 710A pH-meter equipped with a Metrohm combined electrode (type 6.0234.100) and a Metrohm 665 Dosimat burette were used for the titrations. […] The average water ionisation constant (pKw) is 13.76 ± 0.05 in water. Argon was also passed over the solutions during the titrations. Measurements were also carried out in the range of ca. 1.0–2.0 by preparing individual samples in which KCl was partially or completely replaced by HCl and pH values (between 1 and 2) were calculated from the strong acid content.

[2] = 1H NMR titration, pKa of E/Z isomers; format: physicochemical; settings: 10% D2O/H2O, cL = 200 μM, I = 0.1 M (KCl), 25 °C
Experimental: ^1H NMR spectroscopic studies were carried out on a Bruker Avance III HD instrument (Bruker BioSpin GmbH, Rheinstetten, Germany). All spectra were recorded with the WATERGATE water suppression pulse scheme using DSS internal standard.

[3] = Redox reaction of copper(II) complexes with GSH, anaerobic UV/Vis kinetics; format: physicochemical; settings: copper(II) complex (1–4) of the proligand, pH = 7.4, ccomplex = 25 μM, cGSH = 1.25 mM
Experimental: The redox reactions of the copper(II) complexes with GSH and AA were studied at 25.0 ± 0.1 °C on Hewlett Packard 8452A diode array spectrophotometer using a special, tightly closed tandem cuvette (Hellma Tandem Cell, 238-QS). The reactants were separated until the reaction was triggered. Both isolated pockets of the cuvette were completely deoxygenated by bubbling a stream of argon for 10–15 min before mixing the reactants. Spectra were recorded before and then immediately after the mixing, and changes were followed until no further absorbance change was observed. One of the isolated pockets contained the reducing agent and its concentration was 1250 μM and the other contained 25 μM copper(II) complex. The pH of all the solutions was adjusted to 7.40 by 50 mM HEPES buffer and an ionic strength of 0.1 M (KCl) was applied. The stock solutions of the reducing agents and the complexes were freshly prepared every day. During the calculations, the absorbance (A) − time (t) curves were fitted and analysed at the λmax of the complex. (A0 − Afinal) × e^(−a×t) + Afinal equation was used where A0, Afinal and a parameters were refined and accepted at the minimal value of the weighted sum of squared residuals (difference between the measured and calculated absorbance values) at the given wavelength. Then observed rate constants (kobs) of the redox reaction were obtained from the data points of the simulated absorbance–time curves as the slope of the ln(A/A0) versus t plots.

[4] = test system: Colo 320 multidrug resistant colonic adenocarcinoma cells (overexpressing ABCB1 (MDR1)-LRP); assay: MTT cytotoxicity (24 h) / antiproliferation (72 h) assay; format: cell-based; settings: Homo sapiens, read-out: Colo320 IC50
Experimental: Human doxorubicin-sensitive Colo 205 (ATCC-CCL-222) and multidrug resistant Colo 320 (overexpressing ABCB1 (MDR1)-LRP (ATCC-CCL-220.1)) colonic adenocarcinoma cell lines were purchased from LGC Promochem, Teddington, UK. The cells were cultured in RPMI 1640 medium supplemented with 10% heat-inactivated fetal bovine serum, 2 mM L-glutamine, 1 mM Na-pyruvate and 100 mM Hepes. The cell lines were incubated at 37 °C, in a 5% CO2, 95% air atmosphere. The semi-adherent human colon cancer cells were detached with Trypsin-Versene (EDTA) solution for 5 min at 37 °C.
In the study non-cancerous human embryonic lung fibroblast MRC-5, human colonic adenocarcinoma cell line (doxorubicin-sensitive Colo 205, multidrug resistant Colo 320) and neuroblastoma cell line SH-SY5Y were used to determine the effect of compounds on cell growth. The effects of increasing concentrations of compounds on cell growth were tested in 96-well flat-bottomed microtiter plates. The compounds were diluted in a volume of 100 μL of medium.
In case of the colonic adenocarcinoma cells, the two-fold serial dilutions of compounds were prepared in 100 μL of RPMI 1640, horizontally. The semi-adherent colonic adenocarcinoma cells were treated with Trypsin–Versene (EDTA) solution. The cells were adjusted to a density of 2 × 10^4 cells in 100 μL of RPMI 1640 medium, and were added to each well, with the exception of the medium control wells. The final volume of the wells containing compounds and cells was 200 μL.
The culture plates were incubated at 37 °C for 24 h; at the end of the incubation period, 20 μL of MTT (thiazolyl blue tetrazolium bromide, Sigma) solution (from a stock solution of 5 mg/mL) were added to each well. After incubation at 37 °C for 4 h, 100 μL of sodium dodecyl sulfate (SDS) (Sigma) solution (10% in 0.01 M HCI) were added to each well and the plates were further incubated at 37 °C overnight. Cell growth was determined by measuring the optical density (OD) at 540/630 nm with Multiscan EX ELISA reader (Thermo Labsystems, Cheshire, WA, USA). […] Curves were fitted by GraphPad Prism software using the sigmoidal dose-response model (comparing variable and fixed slopes).
The method is similar to the one described in the assay for cytotoxic effect. […] The culture plates were incubated at 37 °C for 72 h and after the incubation time, the plates were stained with MTT according to the previous experimental protocol described for the cytotoxicity assay.

Row | logβ [Cu(HL)]2+ [1] | logβ [CuL]+ [1] | logKderived [CuLH−1]+ [1] | logβ [CuLH−1] [1] | pCu (−log[Cu(II)]) [1] | SMILES | pKa ([2]; read-out: pKa of major E isomer) | pKa ([2]; read-out: pKa of minor Z isomer) | kobs, observed rate constant of the redox reaction with GSH [3] | IC50 ([4]; 24 h exposure) | IC50 ([4]; 72 h exposure)
1 | 11.73 ± 0.02 | 7.76 ± 0.02 | 0.22 | −1.48 ± 0.08 | 11.79 | CNC(=S)N/N=C/c1cc(C[N+](C)(C)C)ccc1O [[H2L^Me]Cl] | – | – | 0.073 ± 0.002 min⁻¹ | > 100 µM | 74.4 ± 3.85 µM
2 | 11.66 ± 0.03 | 7.67 ± 0.03 | 0.36 | −1.65 ± 0.09 | 11.82 | CCNC(=S)N/N=C/c1cc(C[N+](C)(C)C)ccc1O [[H2L^Et]Cl] | – | – | 0.058 ± 0.001 min⁻¹ | 63.8 ± 3.92 µM | 53.3 ± 2.44 µM
3 | 11.26 ± 0.02 | 8.55 ± 0.02 | 1.52 | −1.31 ± 0.05 | 12.80 | C[N+](C)(C)Cc1ccc(O)c(/C=N/NC(=S)Nc2ccccc2)c1 [[H2L^Ph]Cl] | – | – | 0.025 ± 0.005 min⁻¹ | > 100 µM | 95.8 ± 1.58 µM

Row | SMILES | logβ [Cu(HL)]2+ [1] | logβ [CuL]+ [1] | logKderived [CuLH−1]+ [1] | logβ [CuLH−1] [1] | pCu (−log[Cu(II)]) [1] | pKa ([2]; read-out: pKa of major E isomer) | pKa ([2]; read-out: pKa of minor Z isomer) | kobs, observed rate constant of the redox reaction with GSH [3] | IC50 ([4]; 24 h exposure) | IC50 ([4]; 72 h exposure)
4 | C[N+](C)(C)Cc1ccc(O)c(/C=N/NC(N)=S)c1 [[H2L^H]Cl] | 12.00 ± 0.01 | 8.14 ± 0.01 | 0.68 | −1.66 ± 0.02 | 12.21 | 7.51 | 6.95 | 0.080 ± 0.008 min⁻¹ | > 100 µM | 88.8 ± 5.32 µM
